Laboratory results published in article PMC8949075, “Evaluation of Two Novel Hydantoin Derivatives Using Reconstructed Human Skin Model Episkin^TM: Perspectives for Application as Potential Sunscreen Agents” (Molecules, 2022).

Legend:
[1] = Episkin skin permeation test (finite dose, OECD 428); format: in vitro ADME, human; conditions: human; 24 h exposure, 10 mg/cm^2 finite dose, 2% formulation; read-out: recovery in the epidermis (of the applied dose)
Procedure: (§1) The MM was provided by the manufacturer.
(§2) The receptor fluid composition was based on the pilot experiments.
(§3) The formulations of the test compounds (JH3 and JH10) and commercial UV filters were applied onto the skin surface in the donor compartment in a net dose of 10 mg/cm^2 (finite dose application) using disposable flexible loops. To quantify the dose of the formulation applied on the top of the Episkin^TM model, the loops were weighed, filled with approximately 11 mg of formulation, and then reweighed. The difference in weight was used as the amount of formulation applied. Commercial UV filters such as BP3, 4MBC, and AVO were used as reference standards. The filters were obtained from Sigma-Aldrich, Darmstadt, Germany.
(§4) The plate with tissues was embedded with parafilm and incubated at specific time points at 32 °C. As the passive diffusion of chemicals (and therefore their skin absorption) is affected by temperature, the diffusion chamber and skin were maintained at a constant temperature close to normal skin temperature of 32 ± 1 °C [19, 23, 30, 32]. At fixed time points (0, 1, 2, 3, 4, 5, 6, and 24 h), aliquots of the receptor fluid (0.5 mL) were collected from the receptor compartment and immediately replaced with fresh fluid. After 24 h the entire receptor fluid was collected, and the skin surface was washed thoroughly with cotton buds impregnated in methanol (5 times). The tissues were removed from the inserts and both the donor and receptor compartments were washed separately with methanol. The samples were stored at −20 °C until chemical analysis.
(§5) All samples were spiked with 25 µL of pentoxifylline (PTX, Sigma-Aldrich, Darmstadt, Germany) (final concentration of 20 µM) used as an internal standard prior to extraction. The samples were analyzed using ultra high-pressure liquid chromatography coupled with mass spectrometry (UHPLC/MS; Waters Corporation, Milford, MA, USA). Quantification was based on peak area and calculated from standard calibration curves of the compound adjusted by the internal standard area. The assay was in agreement with the Organization for Economic Co-operation and Development (OECD) guideline 428 [19].

[2] = test system: Episkin^TM reconstructed human epidermis; experiment: as above; format: in vitro ADME; conditions: for absorbed amount detected in the RF (of the applied dose) / amount remaining on the surface of the Episkin: 24 h exposure, 10 mg/cm^2 finite dose
Procedure: as §1, §2, §3, §4, §5

[3] = CHO-K1 cytotoxicity assay (MTT); format: cell-based; conditions: Chinese hamster, concentrations ranging from 1 to 10 µM, read-out: viability of cells
Procedure: The Chinese hamster ovary CHO-K1 cell line was obtained from the American Type Culture Collection (ATCC CCL-61). The CHO-K1 cell line was cultured in a humidified incubator at 37 °C with 5% CO2, in F-12K Medium (Kaighn’s Modification of Ham’s F-12 Medium) (ATCC) supplemented with 10% fetal bovine serum (FBS; Gibco, Waltham, MA, USA) and antibiotics (1% streptomycin/penicillin salts mixture, Sigma–Aldrich, Darmstadt, Germany).
The cells were seeded at a density of 6 × 10^3 on 96-well plates. […] Test compounds and 4MBC were dissolved in DMSO (solvent, final concentration 0.1%) and ethanol (co-solvent, final concentration 1%). At the end of the incubation period, 10 µL of MTT reagent was added to each well. After 4 h incubation (37 °C, 5% CO2), the medium was discarded, and the formazan produced in the cells appeared as dark crystals in the bottom of the wells. Next, pure DMSO was added to each well. The optical density data of converted dye was measured at 570 nm (A570) on microplate reader. […] The experiment was conducted two times with three repetitions for each condition.

CHO-K1 cells = experiment: In vitro micronucleus assay; format: cell-based, Chinese hamster; conditions: for DB (dicentric bridges) / MN (micronuclei) / NB (nuclear buds): count in 1000 binucleated cells per slide; for effect on MN, DB, NB and NDI: 1, 5 and 10 µM
Procedure: The CHO-K1 cells were seeded in 6-well plates at a density of 1 × 10^6 cells/well and incubated overnight at 37 °C, 5% CO2 atmosphere. […] The test compounds and 4MBC were dissolved in DMSO (solvent, final concentration 0.1%) and ethanol (co-solvent, final concentration 1%). After 24 h of treatment, the medium was removed, and the cells were rinsed with PBS. Then, fresh medium containing cytochalasin B (CytB; Sigma Aldrich, Darmstadt, Germany) (4.5 µg/mL) was added and incubation was continued for the next 24 h.
After the incubation period, the cells were washed with fresh medium, detached by trypsinization, and centrifuged. The supernatant was discarded and 5 mL of 1% ice-cold sodium citrate (Chempur, Piekary Śląskie, Poland) was added to the cell pellet, which was then gently resuspended. After 15 s, 5 mL of freshly prepared fixative solution (methanol/acetic acid, 3:1) and 4 drops of formaldehyde were added. The cell suspension was centrifuged (5 min, 1000 rpm), the supernatant was discarded again, and the pellet was fixed in fixative mixture two more times, without formaldehyde. After the third fixation, part of the supernatant was removed, and around 1 mL of the supernatant was retained to resuspend the cells. The suspension was then dripped onto clean, previously frozen, glass slides to dry. After air-drying, the slides were stained with Giemsa dye (1:20 in phosphate buffer) for 5 min [56, 78, 79].
One thousand binucleated cells per slide with intact nuclei of equal size, similar pattern of cytoplasm staining, intact membrane, and distinguishable from adjacent cells, without apoptotic and necrotic cells were analyzed. Only the micronuclei with the same morphology and color of the main nuclei, with 1/16 to 1/3 of the major nucleus diameter, unrefringent and not overlapping or connected to the main nuclei were counted. Moreover, the presence of dicentric bridges (DB) and nuclear buds (NB) in the binucleated cells was analyzed. The nuclear division index (NDI) was calculated using the following formula: [(1 × MOC) + (2 × BC) + (3 × MUC)]/N, where MOC is the number of mononuclear cells, BC is the number of binuclear cells, MUC represents the number of multinuclear cells, and N is the total number of scored cells. The micronucleus incidence was presented as a number of micronuclei per 1000 examined binuclear cells. The experiment was conducted two times with three repetitions for each condition.

[4] = set-up: method as in PMID 31238526; conditions: cited from earlier work
[5] = test system: MCF-7 breast cancer model; set-up: method as in PMID 31238526; conditions: cited from earlier work
[6] = test system: selected human skin cells; set-up: method as in PMID 31238526; conditions: cited from earlier work
in vitro = conditions: human, 26 mg/cm^2
Excerpt: The Episkin^TM model (aged 13 days, large/1.07 cm^2 surface area) was provided by Episkin (Lyon, France). The Episkin^TM kit consists of 12 reconstructed epidermis units made of type I collagen matrix, representing the dermis, surfaced with a film of type IV collagen, upon which is laid a stratified and differentiated epidermis derived from human keratinocytes [17]. Upon receipt of the tissues, the culture inserts were removed from the agarose-nutrient solution and transferred into 12-well plates containing 2 mL of the maintenance medium (MM) per well. The MM was provided by the manufacturer. Tissues were then incubated for 24 h at 37 °C in a humidified atmosphere of 5% CO2 before use in the permeation, irritation, or phototoxicity experiments.
Prior to the irritation experiments, the Episkin^TM inserts were washed with sterile PBS to remove traces of the MM and transferred into new 12-well plates containing 2 mL of fresh MM. […] Sodium dodecyl sulphate (SDS; Sigma-Aldrich, Darmstadt, Germany) (5% in water) and PBS were used as positive and negative controls, respectively. Both controls were applied topically (26 mg/cm^2). Samples were tested in two independent experiments using three tissues for each chemical, positive, or negative control.
Then, the tissues were placed in new 12-well plates containing 2 mL of the MM per well and incubated for an additional 42 h at 37 °C in a humidified atmosphere of 5% CO2 as post-treatment incubation time. At the end of this period, the culture media of each tissue were collected and stored at −20 °C for Il-1α measurement.
The cell viability was assessed by a subsequent incubation of the tissues for 3 h with freshly prepared 3-(4,5-dimethylthiazol-2-yl)-2,5-diphenyltetrazolium bromide (MTT; Sigma-Aldrich, Darmstadt, Germany) solution (0.3 mg/mL in assay medium (AM)) in a 12-well plate. Then, a biopsy of the epidermis was done using a puncher (Episkin, Lyon, France), and the precipitated formazan was extracted using 500 µL of acidified isopropanol (Chempur, Piekary Śląskie, Poland) (0.04 N HCl in isopropanol) for 48 h (4 °C). At the end of the extraction period, 200 µL of each sample were transferred to 96-well plates for absorbance measurements at 570 nm (A570) [70, 71, 72, 73]. […] Viability (percent of control) was determined by dividing A570 of experimental wells by A570 of control wells × 100%. The test substance was considered as an irritant when mean tissue viability was equal or less than 50% [16, 17].
Il-1α measurement was conducted by a classic enzyme-linked immunosorbent assay (ELISA) technique (Cayman Chemical, Ann Arbor, MI, USA). Firstly, 100 µL of the samples were added into a 96-well ready to use microtiter plate (precoated with a monoclonal antibody specific for Il-1α (Il-1α capture antibody). Secondly, 100 µL of an acetylcholinesterase:Fab’ Conjugate (AChE:Fab’) was added to each well. The plate was covered with plastic film and incubated overnight at 4 °C. At the end of the incubation period the contents of each well were removed and rinsed five times with wash buffer. Next, 200 µL of Ellman’s reagent (containing the substrate for AChE) was added to each well, the plate was covered with plastic film and developed in the dark using an orbital shaker. The absorbance of the wells was measured at 410 nm. Il-1α concentrations were then calculated using the standard curve.

Structure (SMILES) | recovery at 24 h, 2 % in formulation [1] | absorbed amount detected in the RF (of the applied dose) ([2]; 2% formulation) | amount remaining on the surface of the Episkin ([2]; 2% formulation) | viability at 24 h [3] | NDI (nuclear division index) (CHO-K1 cells; 1 µM) | DB (dicentric bridges) (CHO-K1 cells; 1 µM) | MN (micronuclei) (CHO-K1 cells; 1 µM) | NB (nuclear buds) (CHO-K1 cells; 1 µM) | NDI (nuclear division index) (CHO-K1 cells; 5 µM) | DB (dicentric bridges) (CHO-K1 cells; 5 µM) | MN (micronuclei) (CHO-K1 cells; 5 µM) | NB (nuclear buds) (CHO-K1 cells; 5 µM) | NDI (nuclear division index) (CHO-K1 cells; 10 µM) | DB (dicentric bridges) (CHO-K1 cells; 10 µM) | MN (micronuclei) (CHO-K1 cells; 10 µM) | NB (nuclear buds) (CHO-K1 cells; 10 µM) | effect on MN, DB, NB and NDI (CHO-K1 cells) | photostability [4] | estrogenic activity [5] | cytotoxicity [6] | other results
CCOC(=O)CN1C(=O)/C(=C/C=C/c2ccc(OC)cc2)N(CC(=O)OCC)C1=O [JH3, diethyl 2,2′-((Z)-4-((E)-3-(4-methoxyphenyl)allylidene)-2,5-dioxoimidazolidine-1,3-diyl)diacetate] | 3% | 1% | 95% | > 75% | 1.45 | 3.8 | 10.1 ± 3.3 | 3.6 | 1.40 | 4.1 | 10.5 ± 3.9 | 3.5 | 1.32 | 3.6 | 12.0 ± 4.2 | 5.4 | did not significantly alter any of the evaluated parameters | photostable | no estrogenic activity | no cytotoxicity | detectable amount in RF, fold lower than that of JH10 ([2]; after 24 h exposure): about 28 fold; detection in the receptor fluid over time ([2]; sampling 0-6 and 24 h, 2% formulation, 10 mg/cm^2): undetectable in the RF in the first six hours; viability at 15 min (in vitro): ≥ 50%
CCOC(=O)CN1C(=O)/C(=C/c2ccc(OC)cc2)N(CC(=O)OCC)C1=O [JH10, diethyl 2,2′-((Z)-4-(4-methoxybenzylidene)-2,5-dioxoimidazolidine-1,3-diyl)diacetate] | 7% | 48% | 45% | > 75% | 1.31 | 3.5 | 9.0 ± 3.9 | 4.3 | 1.38 | 3.8 | 11.2 ± 3.6 | 5.2 | 1.47 | 3.5 | 9.5 ± 3.7 | 3.2 | did not significantly alter any of the evaluated parameters | photostable | no estrogenic activity | no cytotoxicity | amount in the receptor fluid (RF) ([2]; after the first hour of exposure, 2% formulation, 10 mg/cm^2): 1 µg/cm^2; viability at 15 min (in vitro): ≥ 50%
